According to patent US20260049091A1, “2-(1,8-DIETHYL-1,3,4,9-TETRAHYDROPYRANO[3,4-B]INDOL-1-YL)-1-(4-METHYLPIPERAZIN-1-YL)ETHAN-1-ONE ETODOLAC DERIVATIVE AS EUKARYOTIC ELONGATION FACTOR 2 KINASE (EEF2K) INHIBITOR FOR TARGETED CANCER THERAPY” (BAHCESEHIR UNIVERSITESI, priority 2023, published 2026):

Key:
eEF2K [1] = biological target: T1, eEF2K (Homo sapiens, UniProt O00418); experiment: Western blot analysis of eEF2K inhibition (p-EF2 Thr56) in MDA-MB-231 cells; format: cell-based; conditions: for eEF2K inhibition potential (p-EF2 Thr56): MDA-MB-231 (TNBC) cells, 2.5 to 20 micromolar, 2 h; for eEF2K inhibition, reduced p-EF2 (Thr56) levels: MDA-MB-231 cells, 2.5 micromolar, 2 h treatment
T1 sequence (O00418 1-725): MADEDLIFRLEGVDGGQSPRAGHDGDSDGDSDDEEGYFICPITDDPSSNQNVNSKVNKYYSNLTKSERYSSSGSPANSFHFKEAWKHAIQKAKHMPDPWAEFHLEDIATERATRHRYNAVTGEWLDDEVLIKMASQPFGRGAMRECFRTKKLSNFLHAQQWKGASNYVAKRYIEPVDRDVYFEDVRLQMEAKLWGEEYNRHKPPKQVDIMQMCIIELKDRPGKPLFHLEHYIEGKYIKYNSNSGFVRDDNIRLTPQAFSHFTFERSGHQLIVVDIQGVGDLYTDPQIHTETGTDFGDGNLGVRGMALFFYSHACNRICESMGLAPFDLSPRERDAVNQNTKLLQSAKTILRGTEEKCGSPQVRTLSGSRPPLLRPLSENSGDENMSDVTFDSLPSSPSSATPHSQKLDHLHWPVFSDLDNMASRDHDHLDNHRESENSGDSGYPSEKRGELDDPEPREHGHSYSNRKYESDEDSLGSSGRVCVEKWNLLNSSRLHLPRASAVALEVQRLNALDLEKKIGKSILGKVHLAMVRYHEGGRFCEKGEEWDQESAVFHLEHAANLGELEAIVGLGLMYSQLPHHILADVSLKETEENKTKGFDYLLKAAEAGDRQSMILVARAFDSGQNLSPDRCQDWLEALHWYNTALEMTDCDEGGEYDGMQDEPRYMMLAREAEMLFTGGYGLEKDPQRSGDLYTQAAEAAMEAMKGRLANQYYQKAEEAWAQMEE
Experimental: MeOH: distilled water by volume (%) (70:30) was used as the mobile phase for HPLC analysis for the inventive compound and the flow rate was set to 1 mL min^−1. Triple negative breast cancer (TNBC) cell lines (ER-, PR- and HER2-) MDA-MB-231 cells were purchased from the American Type Culture Collection (ATCC) (Manassas, VA, USA). MDA-MB-231 cells were cultured in Dulbecco's modified Eagle's medium (DMEM)/F12 supplemented with 10% FBS (Fetal Bovine Serum) and 100 U mL^−1 penicillin and streptomycin. Specific antibodies (p-EF2 (Thr56) (2331S), eEF2 (2332S), eEF2K (3692S) and GAPDH (5174S)) were purchased from Cell Signaling Technology (CST).
Western blot analysis was carried out according to previously reported studies to evaluate the eEF2K inhibition activity for the synthesized compounds. The synthesized compound was applied to MDA-MB-231 cells in the range of various concentrations from 2.5 to 20 micromolar for 2 h treatment. The expression levels of p-EF2 (Thr56) inhibition and eEF2K activity were determined by using related antibodies such as p-EF2 (Thr56), eEF2 and eEF2K. Glyceraldehyde 3-phosphate dehydrogenase (GAPDH) was used as a loading control.
To determine the effects of the synthesized compounds in inhibiting eEF2K activity in TNBC, MDA-MB-231 cells, we performed western blot analysis at concentrations ranging from 2.5 micromolar to 20 micromolar in a dose-dependent manner. eEF2K inhibition was detected by decreased phosphorylation levels of EF2 (p-EF2-Thr-56), a direct downstream substrate of the enzyme.

eEF2K [2] = biological target: T1, eEF2K; conditions: cited from earlier work; for eEF2K inhibition (reported, in words): literature

Row | eEF2K inhibition potential (p-EF2 Thr56) (eEF2K [1]) | eEF2K inhibition, reduced p-EF2 (Thr56) levels (eEF2K [1]) | eEF2K inhibition, reduced p-EF2 (Thr56) levels (eEF2K [1]; listed as compound of the invention) | SMILES | eEF2K inhibition (reported, in words) (eEF2K [2]) | concentration reported to inhibit eEF2K (eEF2K [2]; literature [44-46]) [µM]
1 | did not show any inhibition potential |  |  | CCc1cccc2c3c([nH]c12)C(CC)(CC(=O)O)OCC3 (racemic) [Etodolac, (R,S)-2-[1,8-diethyl-1,3,4-tetrahydropyrano [3,4-b]indol-1-yl]acetic acid] |  | 
2 | high inhibition potential | highest phospho-eEF2 (Thr56) inhibition | marked inhibition of eEF2K | CCc1cccc2c3c([nH]c12)C(CC)(CC(=O)N1CCN(C)CC1)OCC3 (stereo not shown) [Inventive compound, 2-(1,8-diethyl-1,3,4,9-tetrahydropyrano [3,4-b]indol-1-yl)-1-(4-methylpiperazin-1-yl) ethan-1-one] |  | 
3 |  |  |  | CCCCCCCCCCCCCCCCn1cc[n+](Cc2ccccc2)c1C.[I-] [NH125] | does not inhibit EF2K but rather increases eEF2 phosphorylation | 
4 |  |  |  | Cc1cc(C=C2C(=O)C=CC2=O)cc(C)c1O [TX1918] | did not show significant eEF2K inhibition | 10
